Test results taken from publication PMC7180728, “Novel Anthraquinone Compounds Inhibit Colon Cancer Cell Proliferation via the Reactive Oxygen Species/JNK Pathway” (Molecules, 2020).
≈ marks a conversion by molar mass, not a printed value. Like-named read-outs stand apart in the source and are kept apart here. Residues, ends and D or L forms follow the SMILES beside them. *: point of attachment. Cbz = O=C(OCc1ccccc1)*; CH2F = FC*

Assays:
HeLa = assay: MTT cell proliferation assay, HeLa; type: cell-based; conditions: Homo sapiens, HeLa cervical cancer, 48 h
Method: (§1) The effects of the synthesized amide anthraquinone derivatives on the proliferative activity of eight human cancerous cell lines (EC9706, MCF-7, SGC-7901, HepG2, QBC939, HeLa, HCT116 and SW480) in addition to two normal human cell lines (colorectal FHC and liver HL7702) were evaluated using the standard MTT assay.
(§2) The human esophageal cancer cell line EC9706 was obtained from Cancer Hospital and Institute by Prof. Ming Rong Wang, Chinese Academy Medical of Sciences. The human colorectal carcinoma cell lines HCT116 and SW480, hepatoma cell line HepG2, cervical carcinoma cell line HeLa, breast cancer cell line MCF-7, gastric cancer cell line SGC-7901, cholangiocarcinoma cell line QBC939, normal fetal colon cell line FHC and liver cell line HL-7702 were obtained from the Cell Bank of the Shanghai Chinese Academy of Sciences. All cells were cultured in RPMI 1640 medium containing 100 U/mL penicillin and streptomycin and 10% fetal bovine serum and maintained at 37°C under a 5% CO2 atmosphere.
(§3) We analyzed the inhibitory effects of eight anthraquinone-amino acid derivatives on the proliferation of eight tumor cell lines and two normal cell lines in vitro using MTT assays. Cells were added to a 96-well plate with (5,000 cells per well in 100 µL RPMI-1640 medium). Cells were treated with different concentrations (10–100 μg/mL) of 8a–8h for 48 h and then incubated with 20 μL MTT (5 mg/mL) for another 4 h at 37°C. DMSO (150 μL) was then added to each well to dissolve the formazan crystals. The absorbance of each well was read at 490 nm on a microtiter plate ELISA reader. The mean values were obtained from a minimum of three parallel experiments. IC50 values were calculated.

QBC939 = assay: MTT cell proliferation assay, QBC939; type: cell-based; conditions: Homo sapiens, QBC939 cholangiocarcinoma, 48 h
Method: as §1, §2, §3

MCF-7 = assay: MTT cell proliferation assay, MCF-7; type: cell-based; conditions: Homo sapiens, MCF7, MCF-7 breast cancer, 48 h
Method: as §1, §2, §3

SGC-7901 = assay: MTT cell proliferation assay, SGC-7901; type: cell-based, human; conditions: SGC-7901 gastric cancer
Method: as §1, §2, §3

FHC = assay: MTT cell proliferation assay, normal colorectal cells FHC; type: cell-based; conditions: FHC normal human colorectal mucosa, 48 h
Method: as §1, §2, §3

SW480 = assay: MTT cell proliferation assay, SW480; type: cell-based; conditions: Homo sapiens, SW480 colon cancer, 48 h
Method: as §1, §2, §3

EC9708 = assay: MTT cell proliferation assay, EC9706 (Table 1: EC9708); type: cell-based; conditions: Homo sapiens, EC9708 esophageal cancer, 48 h
Method: as §1, §2, §3

HL-7702 = assay: MTT cell proliferation assay, normal liver cells HL-7702; type: cell-based; conditions: L02, HL-7702 normal human hepatocyte, 48 h
Method: as §1, §2, §3

HCT116 = assay: MTT cell proliferation assay, HCT116; type: cell-based, human; conditions: for IC50: Homo sapiens, HCT-116, HCT116 colon cancer, 48 h
Method: as §1, §2, §3

HepG2 = assay: MTT cell proliferation assay, HepG2; type: cell-based; conditions: Homo sapiens, HepG2 liver cancer, 48 h
Method: as §1, §2, §3

[1] = parameters: method as in PMID 27111664, PMID 28811348; conditions: background statement, no own measurement; cited from earlier work
[2] = parameters: method as in PMID 24096626; conditions: on entering the bloodstream; cited from earlier work
[3] = parameters: method as in earlier work; conditions: cell line not given; compared with 8b 27.87 μg/mL; cited from earlier work
HCT116 cells = assay: MTT cell viability with or without zVAD-FMK; type: cell-based, human; conditions: zVAD-FMK 5 mM alone, 24 h
Text: Caspases represent a key molecular group in the regulation of apoptosis. In caspases, there is an upstream and downstream relationship between the initiator of apoptosis and executioner. Caspase 3 is one of the key executers of apoptosis, as it is either partially or totally responsible for the proteolytic cleavage of many key proteins. For example, when caspase 9 is activated, it activates caspase 3, which ultimately triggers cell apoptosis. After detecting the expression of the corresponding Bcl-2 family proteins after 8a treatment by western blotting, we went on to detect the expression levels of PARP, caspase 9, cleaved caspase 9, caspase 3, and cleaved caspase 3 proteins. […] After 24 h of treatment with zVAD-FMK, cell viability is 93%.
Figure 7 Effect of 8a on apoptosis-related protein expression. […] PARP, caspase 3, cleaved caspase 3, caspase 9, cleaved caspase 9, Bcl-2, phosphorylated Bcl-2, Bcl-XL, phosphorylated Bcl-xL and Bax were detected by western blot analysis; β-actin was used as a loading control in each lane. Representative data of three independent experiments are shown; (C) and (D) Grayscale analysis of the relative expression of apoptosis-related proteins detected by Western blotting. […] (E) Cells were exposed to 8a (20 μg/mL) and/or zVAD-FMK ([…]) for 24 h, and cell viability was measured by MTT assay. […]

[4] = Homo sapiens, SGC-7901, 48 h, read-out: IC50

Row | Compound | IC50 (HeLa) [µg/mL] | IC50 (QBC939) [µg/mL] | IC50 (MCF-7) [µg/mL] | IC50 (SGC-7901; [4]) [µg/mL] | IC50 (FHC) [µg/mL] | IC50 (SW480) [µg/mL] | IC50 (EC9708) [µg/mL] | IC50 (HL-7702) [µg/mL] | IC50 (HCT116) [µg/mL] | IC50 (HepG2) [µg/mL] | melting point [°C] | IC50 (SGC-7901; 48 h) [µg/mL] | proliferation of HCT116 cells (in words) (HCT116) | water solubility [1] | fraction bound to plasma proteins [2] [%] | IC50 [3] [µg/mL] | cell viability (HCT116 cells) [%]
1 | CC(C)C(NC(=O)c1ccc2c(c1[N+](=O)[O-])C(=O)c1ccccc1C2=O)C(=O)O (stereo not shown) [Compound 8b, 1-nitro-2-acyl-anthraquinone valine] | 27.87 ± 0.22 (≈ 70.3 µM) | 72.88 ± 0.16 (≈ 184 µM) | 30.81 ± 0.05 (≈ 77.7 µM) | 67.98 ± 0.18 (≈ 172 µM) | > 1000 | 42.4 ± 0.68 (≈ 107 µM) | 38.94 ± 0.02 (≈ 98.2 µM) | > 1000 | 21 ± 0.38 (≈ 53 µM) | 44 ± 0.53 (≈ 111 µM) |  |  |  |  |  |  | 
2 | O=C1c2ccccc2C(=O)c2c1ccc(C(=O)NC(Cc1ccccc1)C(=O)O)c2[N+](=O)[O-] (stereo not shown) [Compound 8c] | 25.94 ± 0.22 (≈ 58.4 µM) | 34.2 ± 0.42 (≈ 77.1 µM) | 28.26 ± 0.13 (≈ 63.6 µM) | 61.6 ± 0.14 (≈ 139 µM) | > 1000 | 39.5 ± 0.31 (≈ 88.9 µM) | 30.24 ± 0.23 (≈ 68 µM) | > 1000 | 30.12 ± 0.02 (≈ 67.8 µM) | 58.34 ± 0.22 (≈ 131 µM) | > 250 |  |  |  |  |  | 
3 | O=C(O)CNC(=O)c1ccc2c(c1[N+](=O)[O-])C(=O)c1ccccc1C2=O [Compound 8d] | 28.7 ± 0.17 (≈ 81 µM) | 36.71 ± 0.04 (≈ 104 µM) | 26.87 ± 0.06 (≈ 75.8 µM) | 60.83 ± 0.12 (≈ 172 µM) | > 1000 | 43.08 ± 0.05 (≈ 122 µM) | 41.47 ± 0.14 (≈ 117 µM) | > 1000 | 27.75 ± 0.11 (≈ 78.3 µM) | 40.11 ± 0.02 (≈ 113 µM) |  |  |  |  |  |  | 
4 | O=C1c2ccccc2C(=O)c2c1ccc(C(=O)N1CCCC1C(=O)O)c2[N+](=O)[O-] (stereo not shown) [Compound 8e] | 48.82 ± 0.13 (≈ 124 µM) | 37.73 ± 0.23 (≈ 95.7 µM) | 31.31 ± 0.13 (≈ 79.4 µM) | 60.5 (≈ 153 µM) | > 1000 | 60.49 ± 0.07 (≈ 153 µM) | 47.35 ± 0.21 (≈ 120 µM) | > 1000 | 35.03 ± 0.25 (≈ 88.8 µM) | 49.07 ± 0.08 (≈ 124 µM) |  | 72.31 ± 0.33 (≈ 183 µM) |  |  |  |  | 
5 | CC(NC(=O)c1ccc2c(c1[N+](=O)[O-])C(=O)c1ccccc1C2=O)C(=O)O (stereo not shown) [Compound 8f] | 241.31 ± 0.13 (≈ 655 µM) | 357.52 ± 0.08 (≈ 971 µM) | 342.19 ± 0.22 (≈ 929 µM) | 165.3 ± 0.21 (≈ 449 µM) | > 1000 | 155.38 ± 0.14 (≈ 422 µM) | 257.31 ± 0.2 (≈ 699 µM) | > 1000 | 98.43 ± 0.13 (≈ 267 µM) | 296.42 ± 0.21 (≈ 805 µM) |  |  | significantly inhibited |  |  |  | 
6 | CSCCC(NC(=O)c1ccc2c(c1[N+](=O)[O-])C(=O)c1ccccc1C2=O)C(=O)O (stereo not shown) [Compound 8g] | 122.52 ± 0.05 (≈ 286 µM) | 290.94 ± 0.05 (≈ 679 µM) | 275.52 ± 0.07 (≈ 643 µM) | 235.81 ± 0.02 (≈ 550 µM) | > 1000 | 158.37 ± 0.04 (≈ 370 µM) | 300.18 ± 0.11 (≈ 701 µM) | > 1000 | 86.49 ± 0.02 (≈ 202 µM) | 520.52 ± 0.22 (≈ 1210 µM) |  |  | significantly inhibited |  |  |  | 
7 | O=C(O)CCC(NC(=O)c1ccc2c(c1[N+](=O)[O-])C(=O)c1ccccc1C2=O)C(=O)O (stereo not shown) [Compound 8h] | 334.28 ± 0.04 (≈ 784 µM) | 112.02 ± 0.03 (≈ 263 µM) | 546.68 ± 0.31 (≈ 1280 µM) | 200.35 ± 0.05 (≈ 470 µM) | > 1000 | 119.93 ± 0.03 (≈ 281 µM) | 112.41 ± 0.03 (≈ 264 µM) | > 1000 | 100.38 ± 0.04 (≈ 235 µM) | 467.74 ± 0.06 (≈ 1100 µM) |  |  | significantly inhibited |  |  |  | 
8 | Cc1cc(O)c2c(c1)C(=O)c1cc(O)cc(O)c1C2=O [Emodin, emodin] |  |  |  |  |  |  |  |  |  |  |  |  |  | poor |  |  | 
9 | O=C1c2c(O)ccc(O)c2C(=O)c2c(NCCNCCO)ccc(NCCNCCO)c21 [MX, mitoxantrone] |  |  |  |  |  |  |  |  |  |  |  |  |  |  | > 95 |  | 
10 | CC(C)C(NC(=O)c1cc(O)c2c(c1)C(=O)c1cccc(O)c1C2=O)C(=O)O (stereo not shown) [rhein valine] |  |  |  |  |  |  |  |  |  |  |  |  |  |  |  | 33.51 (≈ 87.4 µM) | 
11 | COC(=O)C[C@H](NC(=O)[C@H](C)NC(=O)[C@@H](NC(=O)OCc1ccccc1)C(C)C)C(=O)CF [zVAD-FMK, reference compound] (Cbz-Val-Ala-Asp(OMe)-CH2F) |  |  |  |  |  |  |  |  |  |  |  |  |  |  |  |  | 93
